Data reported in patent US10913727B2, “Modulators of the integrated stress pathway” (Calico Life Sciences LLC, priority 2016, dated 2021).
pEC50: −log10 of the molar value.

Tested on: HEK293T cells carrying the ATF4 luciferase reporter
Test: ATF4-Luc assay, in vitro model of Vanishing Cell White Matter Disease (VWMD)
Type: cell-based
Settings: Homo sapiens, HEK-293T, 1 μg/mL tunicamycin, 7 hours, One Glo luminescence
Procedure, shortened: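 Compound at 200 nM and tunicamycin at 1 μg/mL were given together for 7 h to HEK293T cells stably transduced with an ATF4 5′-UTR-driven firefly luciferase reporter. Read-out by luminescence, reported as EC50.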

SMILES | pEC50
O=C(COc1ccc2c(c1)OC(F)(F)O2)NC12CC(NC(=O)c3ccc(OC(F)F)nc3)(C1)C2 [Compound 458, N-(3-{2-[(2,2-difluoro-2H-1,3-benzodioxol-5-yl)oxy]acetamido}bicyclo[1.1.1]pentan-1-yl)-6-(difluoromethoxy)pyridine-3-carboxamide] | 6.60 to 7.30
O=C(COc1ccc(Cl)c(F)c1)NC12CC(NC(=O)c3cnc(O)cn3)(C1)C2 [Compound 184, N-{3-[2-(4-chloro-3-fluorophenoxy)acetamido]bicyclo[1.1.1]pentan-1-yl}-5-hydroxypyrazine-2-carboxamide] | < 5.70
O=C(COc1ccc(Cl)c(F)c1)NC12CC(Nc3cnc(C(F)F)cn3)(C1)C2 [Compound 649, 2-(4-chloro-3-fluorophenoxy)-N-(3-{[5-(difluoromethyl)pyrazin-2-yl]amino}bicyclo[1.1.1]pentan-1-yl)acetamide] | 5.70 to 6.00
O=C(COc1ccc(Cl)c(F)c1)NC12CCC(NC(=O)c3ccc(OC(F)(F)F)cc3)(CC1)C(O)C2 (stereo not shown) [Compound 225, N-{4-[2-(4-chloro-3-fluorophenoxy)acetamido]-2-hydroxybicyclo[2.2.2]octan-1-yl}-4-(trifluoromethoxy)benzamide] | 6.60 to 7.30
O=C(COc1ccc(Cl)c(F)c1)NC12CC(NC(=O)c3ccnc(C(=O)O)c3)(C1)C2 [Compound 280, 4-({3-[2-(4-chloro-3-fluorophenoxy)acetamido]bicyclo[1.1.1]pentan-1-yl}carbamoyl)pyridine-2-carboxylic acid] | < 5.70
Cc1ccc(C(=O)NC23CC(NC(=O)COc4ccc(Cl)c(F)c4)(C2)C3)o1 [Compound 555, N-{3-[2-(4-chloro-3-fluorophenoxy)acetamido]bicyclo[1.1.1]pentan-1-yl}-5-methylfuran-2-carboxamide] | 6.60 to 7.30
O=C(COc1ccc(Cl)c(F)c1)NC12CC(NC(=O)c3cc(F)cc(F)c3)(C1)C2 [Compound 513, N-{3-[2-(4-chloro-3-fluorophenoxy)acetamido]bicyclo[1.1.1]pentan-1-yl}-3,5-difluorobenzamide] | 6.60 to 7.30
O=C(COc1ccc(Cl)c(F)c1)NC12CC(NC(=O)c3cc(N4CCCC4)ccn3)(C1)C2 [Compound 181, N-{3-[2-(4-chloro-3-fluorophenoxy)acetamido]bicyclo[1.1.1]pentan-1-yl}-4-(pyrrolidin-1-yl)pyridine-2-carboxamide] | 6.00 to 6.60
CSc1nccc(C(=O)NC23CC(NC(=O)COc4ccc(Cl)c(F)c4)(C2)C3)n1 [Compound 838, N-{3-[2-(4-chloro-3-fluorophenoxy)acetamido]bicyclo[1.1.1]pentan-1-yl}-2-(methylsulfanyl)pyrimidine-4-carboxamide] | 6.60 to 7.30
Cc1cc2c(NC34CC(NC(=O)COc5ccc(F)c(F)c5)(C3)C4)nccn2n1 [Compound 436, 2-(3,4-difluorophenoxy)-N-{3-[(2-methylpyrazolo[1,5-a]pyrazin-4-yl)amino]bicyclo[1.1.1]pentan-1-yl}acetamide] | 6.60 to 7.30
O=C(COc1ccc(Cl)c(F)c1)NC12CC(NC(=O)c3cn[nH]c3)(C1)C2 [Compound 310, N-{3-[2-(4-chloro-3-fluorophenoxy)acetamido]bicyclo[1.1.1]pentan-1-yl}-1H-pyrazole-4-carboxamide] | < 5.70
O=C(COc1ccc(F)c(F)c1)NC12CC(Nc3cncc(-c4cccnc4)n3)(C1)C2 [Compound 743, 2-(3,4-difluorophenoxy)-N-(3-{[6-(pyridin-3-yl)pyrazin-2-yl]amino}bicyclo[1.1.1]pentan-1-yl)acetamide] | < 5.70
COc1cc(C(=O)NC23CC(NC(=O)COc4ccc(Cl)c(F)c4)(C2)C3)n(C)n1 [Compound 651, N-{3-[2-(4-chloro-3-fluorophenoxy)acetamido]bicyclo[1.1.1]pentan-1-yl}-3-methoxy-1-methyl-1H-pyrazole-5-carboxamide] | 6.60 to 7.30
CCc1ccc(C(=O)NC23CC(NC(=O)COc4ccc(Cl)c(Cl)c4)(C2)C3)nc1 [Compound 700, N-{3-[2-(3,4-dichlorophenoxy)acetamido]bicyclo[1.1.1]pentan-1-yl}-5-ethylpyridine-2-carboxamide] | > 7.30
Cc1cc(C(=O)NC23CC(NC(=O)COc4ccc(Cl)c(F)c4)(C2)C3)ncc1Cl [Compound 664, 5-chloro-N-{3-[2-(4-chloro-3-fluorophenoxy)acetamido]bicyclo[1.1.1]pentan-1-yl}-4-methylpyridine-2-carboxamide] | 6.00 to 6.60
O=C(COc1ccc(Cl)c(F)c1)NC12CC(NC(=O)c3ccccc3-n3cncn3)(C1)C2 [Compound 862, N-{3-[2-(4-chloro-3-fluorophenoxy)acetamido]bicyclo[1.1.1]pentan-1-yl}-2-(1H-1,2,4-triazol-1-yl)benzamide] | < 5.70
CN(C)CCOc1ccccc1C(=O)NC12CC(NC(=O)COc3ccc(Cl)c(F)c3)(C1)C2 [Compound 549, N-{3-[2-(4-chloro-3-fluorophenoxy)acetamido]bicyclo[1.1.1]pentan-1-yl}-2-[2-(dimethylamino)ethoxy]benzamide] | < 5.70

SMILES | pEC50
O=C(COc1ccc(Cl)c(F)c1)NC12CC(NC(=O)c3ccc4ocnc4c3)(C1)C2 [Compound 801, N-{3-[2-(4-chloro-3-fluorophenoxy)acetamido]bicyclo[1.1.1]pentan-1-yl}-1,3-benzoxazole-5-carboxamide] | < 5.70
Cc1cncc(C(=O)NC23CC(NC(=O)COc4ccc(Cl)c(Cl)c4)(C2)C3)n1 [Compound 737, N-{3-[2-(3,4-dichlorophenoxy)acetamido]bicyclo[1.1.1]pentan-1-yl}-6-methylpyrazine-2-carboxamide] | 6.00 to 6.60
Cc1cc(C(=O)N(C)C23CC(NC(=O)COc4ccc(Cl)c(F)c4)(C2)C3)on1 [Compound 355, N-{3-[2-(4-chloro-3-fluorophenoxy)acetamido]bicyclo[1.1.1]pentan-1-yl}-N,3-dimethyl-1,2-oxazole-5-carboxamide] | 5.70 to 6.00
Cc1occc1C(=O)NC12CC(NC(=O)COc3ccc(Cl)c(F)c3)(C1)C2 [Compound 556, N-{3-[2-(4-chloro-3-fluorophenoxy)acetamido]bicyclo[1.1.1]pentan-1-yl}-2-methylfuran-3-carboxamide] | 5.70 to 6.00
O=C(COc1ccc(Cl)c(F)c1)NC12CC(NC(=O)c3ccc[n+]([O-])c3)(C1)C2 [Compound 402, N-{3-[2-(4-chloro-3-fluorophenoxy)acetamido]bicyclo[1.1.1]pentan-1-yl}-1-oxo-1λ^5-pyridine-3-carboxamide] | < 5.70
O=C(COc1ccc(Cl)c(Cl)c1)NC12CCC(NC(=O)c3cnc(C(F)F)cn3)(CC1)C[C@@H]2O [Compound 703, N-{(3S)-4-[2-(3,4-dichlorophenoxy)acetamido]-3-hydroxybicyclo[2.2.2]octan-1-yl}-5-(difluoromethyl)pyrazine-2-carboxamide] | > 7.30
NCc1ccnc(C(=O)NC23CC(NC(=O)COc4ccc(Cl)c(F)c4)(C2)C3)c1 [Compound 193, 4-(aminomethyl)-N-{3-[2-(4-chloro-3-fluorophenoxy)acetamido]bicyclo[1.1.1]pentan-1-yl}pyridine-2-carboxamide] | 6.60 to 7.30
O=C(COc1ccc(Cl)c(F)c1)NC12CC(NC(=O)c3cc4ccccc4cn3)(C1)C2 [Compound 660, N-{3-[2-(4-chloro-3-fluorophenoxy)acetamido]bicyclo[1.1.1]pentan-1-yl}isoquinoline-3-carboxamide] | 6.00 to 6.60
Cc1csc(C(=O)NC23CC(NC(=O)COc4ccc(Cl)c(F)c4)(C2)C3)c1 [Compound 875, N-{3-[2-(4-chloro-3-fluorophenoxy)acetamido]bicyclo[1.1.1]pentan-1-yl}-4-methylthiophene-2-carboxamide] | > 7.30
Cc1cnoc1C(=O)NC12CC(NC(=O)COc3ccc(Cl)c(F)c3)(C1)C2 [Compound 367, N-{3-[2-(4-chloro-3-fluorophenoxy)acetamido]bicyclo[1.1.1]pentan-1-yl}-4-methyl-1,2-oxazole-5-carboxamide] | < 5.70
Cc1nc(C(=O)NC23CCC(NC(=O)COc4ccc(Cl)c(Cl)c4)(CC2)[C@@H](O)C3)n[nH]1 [Compound 702, N-{(3S)-4-[2-(3,4-dichlorophenoxy)acetamido]-3-hydroxybicyclo[2.2.2]octan-1-yl}-5-methyl-1H-1,2,4-triazole-3-carboxamide] | > 7.30
COCc1nc(C(=O)NC23CC(NC(=O)COc4ccc(Cl)c(Cl)c4)(C2)C3)cs1 [Compound 925, N-{3-[2-(3,4-dichlorophenoxy)acetamido]bicyclo[1.1.1]pentan-1-yl}-2-(methoxymethyl)-1,3-thiazole-4-carboxamide] | > 7.30
Cc1ccnc(C(=O)NC23CCC(NC(=O)COc4ccc(Cl)c(F)c4)(CC2)C(O)C3)c1 (stereo not shown) [Compound 915, N-{4-[2-(4-chloro-3-fluorophenoxy)acetamido]-3-hydroxybicyclo[2.2.2]octan-1-yl}-4-methylpyridine-2-carboxamide] | 6.00 to 6.60
CC(C)Oc1ccc(C(=O)NC23CC(NC(=O)COc4ccc(Cl)c(F)c4)(C2)C3)cc1 [Compound 232, N-{3-[2-(4-chloro-3-fluorophenoxy)acetamido]bicyclo[1.1.1]pentan-1-yl}-4-[(propan-2-yl)oxy]benzamide] | 6.60 to 7.30
COc1ccc(C(=O)NC23CC(NC(=O)COc4ccc(Cl)c(F)c4)(C2)C3)cc1 [Compound 533, N-{3-[2-(4-chloro-3-fluorophenoxy)acetamido]bicyclo[1.1.1]pentan-1-yl}-4-methoxybenzamide] | 6.60 to 7.30
Cn1c(C(=O)NC23CC(NC(=O)COc4ccc(Cl)c(F)c4)(C2)C3)cc2ccccc21 [Compound 648, N-{3-[2-(4-chloro-3-fluorophenoxy)acetamido]bicyclo[1.1.1]pentan-1-yl}-1-methyl-1H-indole-2-carboxamide] | 6.60 to 7.30
O=C(COc1ccc(Cl)c(F)c1)NC12CC(NC(=O)c3cnc4ccccn34)(C1)C2 [Compound 258, N-{3-[2-(4-chloro-3-fluorophenoxy)acetamido]bicyclo[1.1.1]pentan-1-yl}imidazo[1,2-a]pyridine-3-carboxamide] | 6.00 to 6.60
